Measurements published in patent publication US7671242B2 (priority 2005, dated 2010).
Values after ≈ are worked out from the molar mass of the structure shown. Like-named read-outs stand apart in the source and are kept apart here.

Legend:
[1] = type: physicochemical; details: lipoxidase treatment at 37° C., hexane:ethyl ether extraction, HPLC
[2] = cited from earlier work
[3] = cited from earlier work; remark: listed apart in the source
[4] = cited from earlier work; remark: listed apart in the source

For `CC1=C[C@H](O)CC(C)(C)[C@H]1/C=C/C(C)=C/C=C/C(C)=C/C=C/C=C(C)/C=C/C=C(C)/C=C/C1=C(C)C[C@@H](O)CC1(C)C` [Lutein, 3,3′-dihydroxy-alpha-carotene], the “initial lutein recovered after enzyme treatment” value [1] is given as “Approximately 88%”, the Stability ([2]; light and oxygen) is given as “Unstable to light and oxygen;” and the Stability ([2]; stored at −20° C. under a nitrogen atmosphere) is given as “Stable if stored at −20 °C under a nitrogen”. For the same compound, the Solubility ([3]; Ethyl acetate) was 800 mg/L (≈ 1410 µM), the Solubility ([3]; Methyl tert butyl ether) was 2000 mg/L (≈ 3520 µM) and the “Solubility in nonpolar and polar solvents” value ([3]; nonpolar and polar solvents) was “soluble in both nonpolar and polar solvents”. The Solubility in water ([3]; water) was “Insoluble”.

In the case of aflatoxin B1 [AFB1], the “Lipid and water solubility” value [4] is given as “both lipid and water soluble”.
